Patent US9408803B2, “Compositions containing lignan-class compounds” (SUNTORY HOLDINGS LIMITED, priority 2006, dated 2016)

How the values were obtained:
[1] = Solubility test in fats or oils (crystal formation after standing overnight at room temperature); assay type: physicochemical
Text: Three samples were used and they included not only a mixture of sesamin and episesamin (sesamin:episesamin=51.1:48.2) but also sesamin and episesamin that were individually purified from the mixture. The wheat germ oil was a product of RIKEN VITAMIN CO., LTD.; the olive oil was a product of nakalai tesque; used as middle-chain fatty acids (MCTs) were ACTOR M-1 (a triglyceride of middle-chain fatty acid with C8:C10:C12=56:42:2) and ACTOR M-2 (a triglyceride of C8 middle-chain fatty acid), both being products of RIKEN VITAMIN CO., LTD. The diacylglycerol was a commercial fat or oil (Econa Cooking Oil of KAO CORPORATION, an edible oil containing about 80% diacylglycerol).
Into test tubes, there were weighed 2 g of the respective fats or oils and various concentrations of the samples that increased from 0.5 to 10% (by weight) by an increment of 0.25%. Then, the test tubes were heated to 120° C. so that sesamin completely dissolved in the fats or oils. Thereafter, the test tubes were allowed to stand overnight at room temperature to examine whether crystals would be formed or not.

[2] = parameters: species or system rats; conditions: rat, in vivo
Text: It may well be said that a preferred mode of ingesting sesamin and/or episesamin is by dissolving them in fat or oil; however, sesamin and/or episesamin is only slightly soluble and has such low solubility in fat or oil (wheat germ oil) that not only is it difficult to incorporate them at high concentrations but, at the same time, even if they are incorporated at low concentrations, a crystal may precipitate during storage on account of their low storage stability. This crystal precipitation can potentially result in lowered absorbability, so considering the storage stability, there has been no alternative to incorporating them at concentrations considerably lower than their solubility in fat or oil (wheat germ oil). Under these circumstances, when one made an attempt to increase the dose of sesamin and/or episesamin that could be ingested at a time, the amount of the solvent fat or oil also had to be increased, inevitably resulting in an excessive calorie intake. In addition, the volume of the sesamin and/or episesamin containing composition that is prescribed becomes so large per unit dosage or their quantities to be ingested become so large that inconveniences in ingestion have occasionally occurred. […]

[3] = tested on: β-oxidation enzymes in the liver; conditions: as compared with sesamin; cited from earlier work

Row | Structure (SMILES) | factor of solubility improvement over wheat germ oil [1] | bodily absorption, solution in fat or oil vs suspension in water [2] | gene expression and enzymatic activity of β-oxidation enzymes in the liver [3]
1 | c1cc2c(cc1[C@H]1OC[C@H]3[C@@H]1CO[C@@H]3c1ccc3c(c1)OCO3)OCO2 [Episesamin, episesamin] | 2.5-5.5 | significantly superior in bodily absorption | markedly increasing
2 | c1cc2c(cc1[C@H]1OC[C@H]3[C@@H]1CO[C@@H]3c1ccc3c(c1)OCO3)OCO2 [Sesamin, sesamin] | 2.5-5.5 | significantly superior in bodily absorption | –
